One experiment relates to Candida albicans IFO 0583. Description: Paper disc agar diffusion, growth inhibition zone, Candida albicans IFO 0583. It counts as cell-based. As to conditions: Candida albicans, IFO0583, 48 h, Table 5; Medium A, 28° C., two-day culture, 1000 μ/ml, 8 mm disc; read-out: Diameter of growth-inhibition zone. The procedure: Evaluation of the antifungal activities of the compound of formula (I) was conducted by the following method: a sheet of filter paper disc (manufactured by Toyo Seisakusho, 8 mm in diameter) soaked in a […] solution of a compound of formula (I) in methanol was placed on an agar plate containing various fungi, which was incubated at 28° C. for two days, and the diameter of the growth inhibition zone around the filter paper disc was measured. The following culture media were used: A: yeast nitrogen base agar medium (pH 7.0) B: Sabouraud agar medium
cpd. No. (Medium A, 28° C., two-day culture)
For the compound `CCCCNS(=O)(=O)C(C)=C(Cn1cncn1)c1ccc(F)cc1F` (single isomer, unassigned) [Compound 32, N-butyl-3-(2,4-difluorophenyl)-4-(1H-1,2,4-triazol-1-yl) -2-butene-2-sulfonamide], the zone of inhibition at 1000 µg/mL amounted to 12 mm.

`CC(=C(Cn1cncn1)c1ccc(F)cc1F)S(=O)(=O)N(C)C` (single isomer, unassigned) [Compound 34, N,N-dimethyl-3-(2,4-difluorophenyl)-4-(1H-1,2,4-triazol-1-yl)-2-butene-2-sufonamide]: the zone of inhibition at 1000 µg/mL was 15 mm.

Regarding `C[C@@H](SNC1CCCCC1)[C@](O)(Cn1cncn1)c1ccc(F)cc1F` [Compound 5], the zone of inhibition at 1000 µg/mL turned out to be 35 mm.

For `C[C@@H](SN1CCOCC1)[C@](O)(Cn1cncn1)c1ccc(F)cc1F` [Compound 7, N-[(2R,3R)-3-(2,4-difluorophenyl)-3-hydroxy-4-(1H-1,2,4-triazol-1-yl) -2-butylsulfenyl]morpholine], the zone of inhibition at 1000 µg/mL is 33 mm.

For `C[C@@H](SN1CCN(C(=O)OC(C)(C)C)CC1)[C@](O)(Cn1cncn1)c1ccc(F)cc1F` [Compound 17, N-tert-butoxycarbonyl-4-[(2R,3R)-3-(2,4-difluorophenyl)-3-hydroxy-4-(1H-1,2,4-triazol-1-yl)-2-butylsulfenyl]piperazine], the zone of inhibition at 1000 µg/mL was 40 mm.

As to `C[C@@H]([S+]([O-])N1CCN(C(=O)OC(C)(C)C)CC1)[C@](O)(Cn1cncn1)c1ccc(F)cc1F` (stereo partly shown) [Compound 18], the zone of inhibition at 1000 µg/mL worked out at 37 mm.

Take `C[C@H]([C@](O)(Cn1cncn1)c1ccc(F)cc1F)S(=O)(=O)N1CCN(C(=O)OC(C)(C)C)CC1` [Compound 19, 1-tert-butoxycarbonyl-4-[(2R,3R)-3-(2,4-difluorophenyl)-3-hydroxy-4-(1H-i,2,4-triazol-1-yl) -2-butylsulfonyl]piperazine]: the zone of inhibition at 1000 µg/mL was 40 mm.

With `C[C@H]([C@](O)(Cn1cncn1)c1ccc(F)cc1F)S(=O)(=O)N1CCNCC1` [Compound 20, 1-[(2R,3R)-3-(2,4-difluorophenyl)-3hydroxy-4-(1H-2,4-triazol-1-yl)-2-butylsulfonyl]piperazine], the zone of inhibition at 1000 µg/mL was determined as 22 mm.

In the case of `C[C@H]([C@](O)(Cn1cncn1)c1ccc(F)cc1F)S(=O)(=O)Nc1ccc(Br)cc1` [Compound 22, N-(4-bromophenyl)-[(2R, 3R)-3-(2,4-difluorophenyl)-3-hydroxy-4-(1H-1,2,4-triazol-1-yl)-2-butane]sulfonamide], the zone of inhibition at 1000 µg/mL turned out to be 30 mm.

With `C[C@H]([C@](O)(Cn1cncn1)c1ccc(F)cc1F)S(=O)(=O)N1CCN(C(=O)c2ccc(C(F)(F)F)cc2)CC1` [Compound 24, 1-[(2R,3R)-3-(2,4-difluorophenyl)-3-hydroxy-4-(1H-1,2,4-triazol-1-yl)-2-butylsulfonyl]-4-(4-trifluoromethylbenzoyl)piperazine], the zone of inhibition at 1000 µg/mL was determined as 37 mm.

As for `CC(=O)N1CCN(S(=O)(=O)[C@H](C)[C@](O)(Cn2cncn2)c2ccc(F)cc2F)CC1` [Compound 25, 1-acetyl-4-[(2R,3R)-3-(2,4-difluorophenyl)-3-hydroxy-4-(1H-1,2,4-triazol-1-yl)-2-butylsulfonyl]piperazine], the zone of inhibition at 1000 µg/mL was 30 mm.

In the case of `C[C@H]([C@](O)(Cn1cncn1)c1ccc(F)cc1F)S(=O)(=O)N1CCN(Cc2nncn2C)CC1` [Compound 26, 1-[(2R,3R)-3-(2,4-difluorophenyl)-3-hydroxy-4-(1H-1,2,4-triazol-1-yl)-2-butylsulfonyl]-4-(4-methyl-4H-1,2,4-triazol-3-ylmethyl) piperazine], the zone of inhibition at 1000 µg/mL is 20 mm.

On to `C[C@H]([C@](O)(Cn1cncn1)c1ccc(F)cc1F)S(=O)(=O)N1CCCC1` [Compound 28, 1-[(2R,3R)-3-(2,4-difluorophenyl)-3-hydroxy-4-(1H-1,2,4-triazol-1-yl)-2-butylsulfonyl]pyrrolidine], for which the zone of inhibition at 1000 µg/mL came out at 50 mm.

Regarding `C[C@H]([C@](O)(Cn1cncn1)c1ccc(F)cc1F)S(=O)(=O)NCc1nncn1C` [Compound 41, N-(4-methyl-4H-1,2,4-triazol-3-ylmethyl)-[(2R,3R)-3-(2,4-difluorophenyl)-3-hydroxy-4-(1H-1,2,4-triazol-1-yl)-2-butane]sulfonamide], the zone of inhibition at 1000 µg/mL came to 23 mm.

With `CCC(C)n1ncn(-c2ccc(N3CCN(S(=O)(=O)[C@H](C)[C@](O)(Cn4cncn4)c4ccc(F)cc4F)CC3)cc2)c1=O` (stereo partly drawn) [Compound 42, 1-[4-[2-(2-butyl)-2,3-dihydro-3-oxo-4H-1,2,4-triazol-4-yl]phenyl]-4-[(2R,3R)-3-(2,4-difluorophenyl)-3-hydroxy-4-(1H-1,2,4-triazol-1-yl)-2-butanesulfonyl]piperazine], the zone of inhibition at 1000 µg/mL was determined as 40 mm.

With `CCC(C)n1ncn(-c2ccc(N3C=CN(S(=O)(=O)[C@H](C)[C@](O)(Cn4cncn4)c4ccc(F)cc4F)CC3)cc2)c1=O` (stereo partly drawn) [Compound 43, 1-[4-[2-(2-butyl)-2,3-dihydro-3-oxo-4H-1,2,4-triazol-4-yl]phenyl]-4-[(2R,3R)-3-(2,4-difluorophenyl)-3-hydroxy-4-(1H-1,2,4-triazol-1-yl)-2-butanesulfonyl]-1,2,3,4-tetrahydropyrazine], the zone of inhibition at 1000 µg/mL turned out to be 35 mm.

Turning to `C[C@H]([C@](O)(Cn1cncn1)c1ccc(F)cc1F)S(=O)(=O)N1CCN(c2ccc(-n3cnn(CC(F)(F)F)c3=O)cc2)CC1` [Compound 44, 1-[4-[2-(2,2,2-trifluoroethyl)-2,3-dihydro-3-oxo-4H-1,2,4-triazol-4-yl]phenyl]-4-[(2R,3R)-3-(2,4-difluorophenyl)-3-hydroxy-4-(1H-1,2,4-triazol-1-yl)-2-butanesulfonyl]piperazine], the zone of inhibition at 1000 µg/mL amounted to 33 mm.

With `C[C@H]([C@](O)(Cn1cncn1)c1ccc(F)cc1F)S(=O)(=O)N1CCN(c2ncccn2)CC1` [Compound 45, 1-[(2R,3R)-3-(2,4-difluorophenyl)-3-hydroxy-4-(1H-1,2,4-triazol-1-yl)-2-butanesulfonyl]-4-(2-pyrimidinyl) piperazine], the zone of inhibition at 1000 µg/mL worked out at 50 mm.

For `C[C@H]([C@](O)(Cn1cncn1)c1ccc(F)cc1F)S(=O)(=O)N(C)Cc1ccccc1` [Compound 47, N-benzyl-N-methyl-[(2R,3R)-3-(2,4-difluorophenyl)-3-hydroxy-4-(1H-1,2,4-triazol-1-yl)-2-butane]sulfonamide], the zone of inhibition at 1000 µg/mL is 45 mm.

Take `C[C@@H](NS(=O)(=O)c1ccc(F)cc1F)[C@](O)(Cn1cncn1)c1ccc(F)cc1F` [Compound 50]: the zone of inhibition at 1000 µg/mL is 45 mm.

On to `C[C@@H](NS(=O)(=O)c1ccc(N)cc1)[C@](O)(Cn1cncn1)c1ccc(F)cc1F` [Compound 52], for which the zone of inhibition at 1000 µg/mL was 35 mm.

`C[C@@H](NS(=O)(=O)CCCCl)[C@](O)(Cn1cncn1)c1ccc(F)cc1F` [Compound 56]: the zone of inhibition at 1000 µg/mL stood at 30 mm.

For the compound `C[C@@H](N1CCCS1(=O)=O)[C@](O)(Cn1cncn1)c1ccc(F)cc1F` [Compound 57], the zone of inhibition at 1000 µg/mL turned out to be 35 mm.

In the case of `COc1ccc(CNS(=O)(=O)[C@H](C)[C@](O)(Cn2cncn2)c2ccc(F)cc2F)cc1OC` [Compound 60, N-(3,4-dimethoxybenzyl)-[(2R,3R)-3-(2,4-difluorophenyl)-3-hydroxy-4-(1H-1,2,4-triazol-1-yl)-2-butane]sulfonamide], the zone of inhibition at 1000 µg/mL worked out at 35 mm.

For `CCCCCCCCCCCCN(C)S(=O)(=O)[C@H](C)[C@](O)(Cn1cncn1)c1ccc(F)cc1F` [Compound 61, N-dodecyl-N-methyl-[(2R,3R)-3-(2,4-difluorophenyl)-3-hydroxy-4-(1H-1,2,4-triazol-1-yl)-2-butane]sulfonamide], the zone of inhibition at 1000 µg/mL is 18 mm.

Turning to `C#CCN(C)S(=O)(=O)[C@H](C)[C@](O)(Cn1cncn1)c1ccc(F)cc1F` [Compound 62, N-methyl-N-(2-propinyl)-[(2R,3R)-3-(2,4-difluorophenyl)-3-hydroxy-4-(1H-1,2,4-triazol-1-yl)-2-butane]sulfonamide], the zone of inhibition at 1000 µg/mL was determined as 45 mm.

`C[C@H]([C@](O)(Cn1cncn1)c1ccc(F)cc1F)S(=O)(=O)N(C)CC#CC(C)(C)C` [Compound 63, N-(4,4-dimethyl-2-pentynyl)-N-methyl-[(2R,3R)-3-(2,4-difluorophenyl)-3-hydroxy-4-(1H-1,2,4-triazol-1-yl)-2-butane]sulfonamide]: the zone of inhibition at 1000 µg/mL amounted to 40 mm.

`C[C@H]([C@](O)(Cn1cncn1)c1ccc(F)cc1F)S(=O)(=O)N(C)Cc1ccc(C(F)(F)F)cc1` [Compound 66, N-methyl-N-(4-trifluoromethylbenzyl)-[(2R,3R)-3-(2,4-difluorophenyl)-3-hydroxy-4-(1H-1,2,4-triazol-1-yl)-2-butane]sulfonamide]: the zone of inhibition at 1000 µg/mL came out at 42 mm.

Take `C[C@H]([C@](O)(Cn1cncn1)c1ccc(F)cc1F)S(=O)(=O)N(C)Cc1ccc(C(F)(F)F)cc1F` [Compound 67, N-(2-fluoro-4-trifluoromethylbenzyl)-N-methyl-[(2R,3R)-3-(2,4-difluorophenyl)-3-hydroxy-4-(1H-1,2,4-triazol-1-yl)-2-butane]sulfonamide]: the zone of inhibition at 1000 µg/mL is 42 mm.

The experiment is the same for the next values; noted with them: Table 5; Medium A, 28° C., two-day culture, 1000 μ/ml, 8 mm disc.
As for `CC(=C(Cn1cncn1)c1ccc(F)cc1F)S(=O)(=O)N1CCN(c2ccccc2)CC1` (single isomer, unassigned) [Compound 30, 1-[3-(2,4-difluorophenyl)-4-(1H-1,2,4-triazol-1-yl)-2-buten-2-ylsulfonyl]-4-phenylpiperazine], the “Diameter of growth-inhibition zone” value is 12 mm.

For `CC(=C(Cn1cncn1)c1ccc(F)cc1F)S(=O)(=O)N1CCN(c2ccccc2)CC1` (single isomer, unassigned) [Compound 31, 1-[3-(2,4-difluorophenyl)-4-(1H-1,2,4-triazol-1-yl)-2-buten-2-ylsulfonyl]-4-phenylpiperazine], the “Diameter of growth-inhibition zone” value is listed as 35 mm.
